Results: ChEMBL document CHEMBL1275412, “Detection of new arr-4 and arr-5 gene cassettes in clinical Pseudomonas aeruginosa and Klebsiella pneumoniae strains from Brazil” (2008)
In brackets after ≈: the same amount, converted by molar mass.

Legend:
Pseudomonas aeruginosa = assay: Antibacterial activity against Pseudomonas aeruginosa PS1111 with arr-4 gene by Etest method; assay type: functional
Klebsiella pneumoniae [1] = assay: Antibacterial activity against Klebsiella pneumoniae K830 with arr-5 gene by Etest method; assay type: functional
Klebsiella pneumoniae [2] = assay: Antibacterial activity against Klebsiella pneumoniae K56 with arr-5 gene by Etest method; assay type: functional
Klebsiella pneumoniae [3] = assay: Antibacterial activity against Klebsiella pneumoniae K224 with arr-5 gene by Etest method; assay type: functional
Klebsiella pneumoniae [4] = assay: Antibacterial activity against Klebsiella pneumoniae K688 with arr-5 gene by Etest method; assay type: functional
Escherichia coli [5] = assay: Antibacterial activity against Escherichia coli […] harboring arr-4 gene after 20 hrs by Etest method; assay type: functional
Escherichia coli [6] = assay: Antibacterial activity against Escherichia coli […] harboring arr-5 gene after 20 hrs by Etest method; assay type: functional
Klebsiella pneumoniae [7] = assay: Antibacterial activity against Klebsiella pneumoniae ATCC 10031 control strain by Etest method

CO[C@H]1/C=C/O[C@@]2(C)Oc3c(C)c(O)c4c(O)c(c(/C=N/N5CCN(C)CC5)c(O)c4c3C2=O)NC(=O)/C(C)=C\C=C\[C@H](C)[C@H](O)[C@@H](C)[C@@H](O)[C@@H](C)[C@H](OC(C)=O)[C@@H]1C [RIFAMPIN]
MIC (Pseudomonas aeruginosa): > 32 µg/mL
MIC (Klebsiella pneumoniae [1]): > 32 µg/mL
MIC (Klebsiella pneumoniae [2]): 8 µg/mL (≈ 9.72 µM)
MIC (Klebsiella pneumoniae [3]): 8 µg/mL (≈ 9.72 µM)
MIC (Klebsiella pneumoniae [4]): 8 µg/mL (≈ 9.72 µM)
MIC (Escherichia coli [5]): > 256 µg/mL
MIC (Escherichia coli [6]): > 256 µg/mL
MIC (Klebsiella pneumoniae [7]): 6 µg/mL (≈ 7.29 µM)
